Source: EP0337441A2, “Expression of a functional form of a herpes virus DNA polymerase in yeast” (E.R. Squibb & Sons, Inc., priority 1988, dated 1989)
Where two headings read alike, the source gives them in different places.

Key:
HSV-1 DNA pol [1] = target: T1, HSV-1 DNA pol (Human herpesvirus 1, UniProt P04292); experiment: HSV DNA pol assay (high salt, 100 mM ammonium sulfate), 3H-TTP incorporation into nicked calf thymus DNA by cell extracts; type: biochemical; conditions: for high salt activity in the Y-MH202 yeast cell extracts (result in words): Y-MH202 extract, 23 µM ACVTP, 5.3 µM aphidicolin
T1 sequence (P04292 whole entry): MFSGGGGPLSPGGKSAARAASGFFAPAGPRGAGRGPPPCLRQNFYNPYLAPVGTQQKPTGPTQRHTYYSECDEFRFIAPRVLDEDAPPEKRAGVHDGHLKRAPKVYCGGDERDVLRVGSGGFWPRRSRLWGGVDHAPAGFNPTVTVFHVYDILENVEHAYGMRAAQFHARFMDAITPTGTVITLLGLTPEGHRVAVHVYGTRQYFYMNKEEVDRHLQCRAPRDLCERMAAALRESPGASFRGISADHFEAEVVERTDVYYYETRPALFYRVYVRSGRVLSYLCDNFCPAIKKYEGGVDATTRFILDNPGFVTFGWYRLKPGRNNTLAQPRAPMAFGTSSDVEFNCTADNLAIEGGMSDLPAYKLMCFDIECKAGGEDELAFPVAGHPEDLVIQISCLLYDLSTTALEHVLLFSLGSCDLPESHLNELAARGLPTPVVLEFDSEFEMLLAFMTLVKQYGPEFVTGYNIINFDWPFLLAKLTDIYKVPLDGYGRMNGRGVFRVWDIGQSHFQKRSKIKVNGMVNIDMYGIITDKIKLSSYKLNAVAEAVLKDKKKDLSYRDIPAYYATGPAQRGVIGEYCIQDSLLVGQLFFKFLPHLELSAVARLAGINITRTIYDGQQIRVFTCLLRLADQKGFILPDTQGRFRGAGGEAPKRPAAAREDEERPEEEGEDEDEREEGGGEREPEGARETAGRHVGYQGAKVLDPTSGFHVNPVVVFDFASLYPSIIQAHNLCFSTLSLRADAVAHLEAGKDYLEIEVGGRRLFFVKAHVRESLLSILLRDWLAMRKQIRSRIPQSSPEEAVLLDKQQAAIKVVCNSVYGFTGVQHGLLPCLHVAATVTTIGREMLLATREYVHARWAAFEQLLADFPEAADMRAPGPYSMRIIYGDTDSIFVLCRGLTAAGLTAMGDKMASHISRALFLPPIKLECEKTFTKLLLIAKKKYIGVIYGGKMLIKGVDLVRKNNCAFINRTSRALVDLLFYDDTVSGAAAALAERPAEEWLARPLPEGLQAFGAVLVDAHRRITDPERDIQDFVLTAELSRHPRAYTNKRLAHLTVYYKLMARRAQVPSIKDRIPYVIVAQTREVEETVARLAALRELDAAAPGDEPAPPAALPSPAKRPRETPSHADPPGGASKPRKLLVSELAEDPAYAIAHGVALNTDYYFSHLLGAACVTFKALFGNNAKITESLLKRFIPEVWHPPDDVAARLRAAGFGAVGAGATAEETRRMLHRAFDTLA
Method: (§1) In order to determine whether HSV pol protein was expressed and whether HSV specific DNA polymerase activity could be detected in yeast cells containing pMH202, the following experiments were performed. This description represents only one example of how such a strain can be constructed. Other examples may include a different yeast host strain and/or a different transformation procedure. Yeast cells (Y 294) were transformed with pMH101 (control plasmid without the HSV pol gene) or pMH202 (expression plasmid with HSV pol gene) DNAs. Transformation of the yeast cells was accomplished using the method of J. D. Beggs (1978. Nature 275: 104 - 109). The transformants were selected for uracil prototrophy by growth on minimal media containing 182.2 g/L sorbitol; 20 g/L glucose; 6.7 g/L yeast nitrogen base (Difco) supplemented with 30µg/ml leucine, 20µg/ml histidine, 20µg/ml tryptophan and 2% glucose but lacking uracil. One colony of each type (designated Y-MH101 or Y-MH202, respectively) was selected at random for further analysis. 100 ml overnight cultures were grown from these two strains in minimal media (0.7% yeast nitrogen base [Difco]) containing the required amino acids as described above and 2% raffinose. The following day, cultures were divided in half, cells were pelleted, resuspended in 100 ml of fresh media containing either 2% raffinose or 2% galactose and again grown overnight. The following day, the four cultures were pelleted at 4°C. Cell lysates were prepared as described by Johnson et al. (1985 . Cell 43:369 - 377). This represents only one example of how such a lysate may be prepared. Cell pellets were resuspended in 1 ml 50 mM Tris-HCl, pH 8.0; 50mM NaCl, 1% dimethylsulfoxide; 10% glycerol; 5mM beta-mercaptoethanol; 10mM EDTA; 2mM benzamidine; and 1mM phenylmethylsulfonylfluoride (PMSF). Lysis was achieved by vortexing the cells 15 - 20 times for 1 minute in the presence of an equal volume of acid-washed glass beads. The extent of lysis was monitored by microscopy. The lysed extracts were transferred to 1.5 ml microfuge tubes and centrifuged for 10 minutes at 12,000 x g. Extracts were stored at -80°C in 15% glycerol until use. The final protein concentration of each of the extracts was between 5 - 6 mg/ml.
Infected cell extracts were prepared essentially as described by Karkas et al. (1986. J. Med. Chem. 29:842 - 848). HeLa S3 cells were infected with HSV-1 KOS at a multiplicity of infection of 10 plaque forming units per cell and harvested at 16 hours post infection. […]
(§2) The lysates were also analyzed for DNA polymerase enzyme activity. […]

yeast alpha DNA pol = yeast alpha DNA pol (Saccharomyces cerevisiae, UniProt P13382); experiment: Yeast DNA polymerase (alpha pol) assay (low salt), 3H-TTP incorporation by yeast cell extracts; type: biochemical, Saccharomyces cerevesiae; conditions: for low salt DNA pol activity, sensitivity to drug (result in words): all of the extracts tested (also HSV-infected HeLa extract), at the concentration tested; for inhibition at 5.3 µM: aphidicolin 5.3 µM
Sequence of yeast alpha DNA pol (P13382 2-1468): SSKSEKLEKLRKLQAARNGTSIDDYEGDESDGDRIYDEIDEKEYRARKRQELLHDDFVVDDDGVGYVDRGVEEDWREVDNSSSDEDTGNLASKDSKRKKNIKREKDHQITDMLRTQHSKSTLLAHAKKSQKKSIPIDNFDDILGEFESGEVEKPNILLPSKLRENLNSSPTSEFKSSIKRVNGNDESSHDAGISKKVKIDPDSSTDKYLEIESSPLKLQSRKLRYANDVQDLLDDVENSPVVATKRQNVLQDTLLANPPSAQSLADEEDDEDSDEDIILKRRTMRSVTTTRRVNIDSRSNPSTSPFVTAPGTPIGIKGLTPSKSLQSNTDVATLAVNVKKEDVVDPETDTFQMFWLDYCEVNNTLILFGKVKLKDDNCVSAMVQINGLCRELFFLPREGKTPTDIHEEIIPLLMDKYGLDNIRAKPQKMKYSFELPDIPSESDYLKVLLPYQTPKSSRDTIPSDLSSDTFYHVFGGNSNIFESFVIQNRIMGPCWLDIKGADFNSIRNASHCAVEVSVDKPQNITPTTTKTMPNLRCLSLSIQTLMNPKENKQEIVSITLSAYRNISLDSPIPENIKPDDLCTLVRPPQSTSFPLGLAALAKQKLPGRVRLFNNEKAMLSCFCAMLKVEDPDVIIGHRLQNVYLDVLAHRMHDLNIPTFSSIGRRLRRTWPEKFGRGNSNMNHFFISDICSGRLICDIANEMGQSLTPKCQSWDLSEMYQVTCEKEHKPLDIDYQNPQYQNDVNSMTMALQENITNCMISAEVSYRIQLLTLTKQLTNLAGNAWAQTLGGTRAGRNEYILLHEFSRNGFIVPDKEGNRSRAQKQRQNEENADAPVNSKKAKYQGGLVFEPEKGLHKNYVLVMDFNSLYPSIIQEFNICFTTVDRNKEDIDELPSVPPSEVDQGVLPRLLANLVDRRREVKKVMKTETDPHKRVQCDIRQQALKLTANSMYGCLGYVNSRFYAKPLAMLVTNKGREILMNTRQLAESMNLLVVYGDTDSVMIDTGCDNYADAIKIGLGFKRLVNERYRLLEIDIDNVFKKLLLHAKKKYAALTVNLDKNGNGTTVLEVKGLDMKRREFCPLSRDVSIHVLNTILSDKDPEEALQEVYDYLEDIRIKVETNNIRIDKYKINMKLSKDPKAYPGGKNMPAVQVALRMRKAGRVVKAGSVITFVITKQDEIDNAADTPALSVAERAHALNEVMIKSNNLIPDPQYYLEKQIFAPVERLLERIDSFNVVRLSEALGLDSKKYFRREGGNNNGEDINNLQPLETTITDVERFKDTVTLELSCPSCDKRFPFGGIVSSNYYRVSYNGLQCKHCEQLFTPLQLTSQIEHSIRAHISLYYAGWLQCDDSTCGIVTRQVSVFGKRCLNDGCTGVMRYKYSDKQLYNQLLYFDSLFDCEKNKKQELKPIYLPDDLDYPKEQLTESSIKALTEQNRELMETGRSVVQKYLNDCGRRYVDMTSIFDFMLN
Method: as §1
The lysates were also analyzed for DNA polymerase enzyme activity. Each of the four yeast cell extracts was assayed for DNA pol activity under two sets of conditions. The yeast DNA pol assay conditions were designed to detect the alpha polymerase which should be present in all lysates. The HSV DNA pol assay conditions were chosen to detect HSV specific DNA pol activity which is enhanced by high salt (100mM ammonium sulfate). In contrast, the yeast alpha DNA pol is inhibited under these salt conditions. The assay for yeast DNA polymerase was performed essentially as described in Celniker and Campbell (1982. Cell 31:201 - 213), but without addition of ribonucleotide triphosphates. Reaction mixtures contained 5µl of enzyme extract (25 - 30 µg of protein) in 10mM Tris-HCl, pH 7.5; 10 mM MgCl₂; 10 mM (NH₄)₂SO₄; 0.1 mM DTT; 100 µM each of dATP, dCTP, dGTP; 100 µM ³H-TTP (10 cpm/pmol); 40 µg/ml nicked calf thymus DNA; and 2 mM spermidine in a final volume of 50 µl. The assay for the HSV-1 DNA pol was performed as follows. […] The filters were washed thoroughly, twice using 1N HCl and once using 95% ethanol; air dried and quantitated by scintillation counting using a LKB 1214 Rackbeta counter at 63% efficiency. […]

HSV-1 DNA pol [2] = target: T1, HSV-1 DNA pol; experiment: HSV DNA pol assay (high salt, 100 mM ammonium sulfate), 3H-TTP incorporation into nicked calf thymus DNA by cell extracts; type: biochemical; parameters: made in house; host or cells: Saccharomyces cerevisiae Y294 carrying pMH202 (strain Y-MH202), galactose-induced, crude cell lysate; conditions: HSV pol assay conditions
Method: In order to determine whether HSV pol protein was expressed and whether HSV specific DNA polymerase activity could be detected in yeast cells containing pMH202, the following experiments were performed. This description represents only one example of how such a strain can be constructed. Other examples may include a different yeast host strain and/or a different transformation procedure. Yeast cells (Y 294) were transformed with pMH101 (control plasmid without the HSV pol gene) or pMH202 (expression plasmid with HSV pol gene) DNAs. Transformation of the yeast cells was accomplished using the method of J. D. Beggs (1978. Nature 275: 104 - 109). The transformants were selected for uracil prototrophy by growth on minimal media containing 182.2 g/L sorbitol; 20 g/L glucose; 6.7 g/L yeast nitrogen base (Difco) supplemented with 30µg/ml leucine, 20µg/ml histidine, 20µg/ml tryptophan and 2% glucose but lacking uracil. One colony of each type (designated Y-MH101 or Y-MH202, respectively) was selected at random for further analysis. 100 ml overnight cultures were grown from these two strains in minimal media (0.7% yeast nitrogen base [Difco]) containing the required amino acids as described above and 2% raffinose. […] The extent of lysis was monitored by microscopy. […]
as §2

Structure (SMILES) | high salt activity in the Y-MH202 yeast cell extracts (result in words) (HSV-1 DNA pol [1]) | inhibition at 23 µM (HSV-1 DNA pol [1]; Yeast Expressor (Y-MH202, galactose) extract, HSV pol assay conditions, ACVTP 23 µM, read-out: % Inhibition by Drug ACVTP) [%] | inhibition at 23 µM (yeast alpha DNA pol; Yeast Control (Y-MH101, galactose) extract, alpha pol assay conditions, ACVTP 23 µM, 0% means relative activity ≥1.0, read-out: % Inhibition by Drug ACVTP) [%] | low salt DNA pol activity, sensitivity to drug (result in words) (yeast alpha DNA pol) | inhibition at 23 µM (HSV-1 DNA pol [2]; HSV-infected HeLa cells extract, ACVTP 23 µM, read-out: % Inhibition by Drug ACVTP) [%] | inhibition at 5.3 µM (HSV-1 DNA pol [1]; read-out: % Inhibition by Drug Aphidicolin, Yeast Expressor (Y-MH202, galactose) extract, HSV pol assay conditions, aphidicolin 5.3 µM) [%] | inhibition at 5.3 µM (yeast alpha DNA pol; read-out: % Inhibition by Drug Aphidicolin, Yeast Control (Y-MH101, galactose) extract, alpha pol assay conditions) [%] | inhibition at 5.3 µM (yeast alpha DNA pol; read-out: % Inhibition by Drug Aphidicolin, Yeast Expressor (Y-MH202, galactose) extract, alpha pol assay conditions) [%] | inhibition at 5.3 µM (HSV-1 DNA pol [2]; read-out: % Inhibition by Drug Aphidicolin, HSV-infected HeLa cells extract, aphidicolin 5.3 µM) [%]
Nc1nc2c(ncn2COCCOP(=O)(O)OP(=O)(O)OP(=O)(O)O)c(=O)[nH]1 [ACVTP, acyclovir triphosphate] | inhibited | 93 | 0 | not sensitive | 89 | – | – | – | –
C[C@@]1(CO)[C@H](O)CC[C@@]2(C)[C@H]1CC[C@H]1C[C@@H]3C[C@@]12CC[C@]3(O)CO [Aphidicolin, aphidicolin] | inhibited | – | – | sensitive | – | 94 | 88 | 80 | 90
